Assay results: patent US9382213B2, “Heterocyclic and cyclic analogs of propargyl-linked inhibitors of dihydrofolate reductase” (PROMILIAD BIOPHARMA INC., priority 2014, dated 2016)
Converted amounts (≈) assume the structure as drawn. Like-named read-outs stand apart in the source and are kept apart here.

Key:
[1] = target: T1, hDHFR (Homo sapiens, UniProt P00374); experiment: DHFR enzyme inhibition (NADPH consumption at 340 nm), human DHFR; type: biochemical
T1 sequence (P00374 1-187): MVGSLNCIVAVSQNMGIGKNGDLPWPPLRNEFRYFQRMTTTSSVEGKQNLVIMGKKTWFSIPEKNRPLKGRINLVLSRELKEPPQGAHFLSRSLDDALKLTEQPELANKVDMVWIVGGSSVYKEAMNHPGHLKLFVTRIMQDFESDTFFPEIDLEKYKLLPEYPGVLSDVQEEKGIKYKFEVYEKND
Experimental: (§1) Enzyme inhibition was determined by monitoring the consumption of NADPH at 340 nm for one minute. Reactions were performed with 20 mM TES pH 7.0, 50 mM KCl, 10 mM 2-mercaptoethanol, 0.5 mM EDTA and 1 mg/mL bovine serum albumin. Saturating concentrations of cofactor (100 μM NADPH) and substrate (100 μM dihydrofolate) were used with a limiting concentration of enzyme. All assays were conducted in triplicate at 25° C.

[2] = target: T2, CaDHFR (Candida albicans, UniProt P22906); experiment: DHFR enzyme inhibition (NADPH consumption at 340 nm), C. albicans DHFR; type: biochemical
T2 construct: made in house
T2 sequence (P22906 1-192): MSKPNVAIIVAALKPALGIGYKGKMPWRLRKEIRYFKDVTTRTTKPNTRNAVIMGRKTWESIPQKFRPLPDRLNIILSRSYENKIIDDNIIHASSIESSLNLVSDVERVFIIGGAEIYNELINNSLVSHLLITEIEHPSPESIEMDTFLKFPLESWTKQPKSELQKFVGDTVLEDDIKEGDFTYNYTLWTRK
Experimental: (§2) Med. Chem., 17:4866-4872 (2009)). Crystallization of the protein with ligand also followed previously described procedures (Paulsen et al 2011). Data were collected at Brookhaven National Laboratory, beamline X4A (CaDHFR) or X4C (CgDHFR). Molecular replacement was used to determine all three structures. Initial phase information was obtained using Phaser; electron density and model building used Coot. Refinement was carried out with Refmac 5 as part of the CCP4 package. Procheck was used to assess model quality.
as §1

[3] = tested on: Human MCF-10; experiment: Mammalian cell cytotoxicity; type: cell-based
[4] = tested on: C. glabrata (strain NCCLS84); experiment: Antifungal activity (MIC), XTT cell viability; type: cell-based, Candida glabrata; settings: strain NCCLS84, GSB media
Experimental: (§3) Stock cultures of C. albicans (strain SC5314) or C. glabrata (strain NCCLS84), thawed from storage in 50% glycerol at −80° C., were streaked on YM agar plates and grown at 37° C. for 48 hours. Isolated colonies from the plate were suspended in 100 mL of glucose-salt-biotin (GSB) media containing ammonia chloride (2 g), potassium phosphate (0.35 g), magnesium sulfate (0.24 g), sodium citrate (0.3 g), piperazine-N,N′-bis[2-ethanesulfonic acid] (3.4 g), biotin (40 mg) and glucose (20 g) in 1 L of water at a final pH of 7.1. […] An aliquot was removed from the shake flask culture, diluted to between 1×10^5 and 1×10^6 cells/mL in GSB media, and added to 96 well test plates (100 μL per well) containing test compounds dispensed in DMSO (1 μL). Amphotericin B and itraconazole were used as controls. C. albicans cell viability was determined by the addition of Alamar Blue (10 μL) to each well after a 24 hour incubation period. […] The XTT Cell Proliferation kit (ATCC) was used as an alternative. Tetrazolium dye, XTT, along with an electron activating reagent (50 μL) was added to 96 well plates and incubated for 24 hours at 37° C. Cell viability is indicated by a color change from a dark orange to a bright orange color that can be detected at […].

[5] = Kinetic solubility; type: physicochemical; settings: water, 0.2% DMSO, room temperature 30 min, HPLC
Experimental: Compounds were initially dissolved as […] dimethyl sulfoxide (DMSO) solutions and diluted in filtered water in the presence or absence of 200 μg/ml methylcellulose (METHOCEL A4M; Dow Corning, Midland, Mich.). Final concentration of DMSO of all samples is 0.2%. All samples were incubated at room temperature for 30 min and centrifuged for 10 min at 15,000 rpm. Supernatant of the samples were analyzed by reversed phase HPLC. The mobile phase consisted of 50% acetonitrile (ACN) and 50% potassium phosphate buffer (50 mM, pH 7.0), using an isocratic flow rate of 1.5 ml/min. Solubility was determined as the maximal concentration for which absorption is linearly related to the log of the concentration.

[6] = tested on: C. albicans (strain SC5314); experiment: Antifungal activity (MIC), Alamar Blue cell viability; type: cell-based, Candida albicans; settings: strain SC5314, GSB media, Alamar Blue after 24 hour incubation; for MIC: Candida albicans, SC5314, 24 h
Experimental: as §3

[7] = target: T3, CgDHFR (Candida glabrata, UniProt Q6FPH0); experiment: DHFR enzyme inhibition (NADPH consumption at 340 nm), C. glabrata DHFR; type: biochemical; settings: 100 μM NADPH, 100 μM dihydrofolate, pH 7.0, 25° C., triplicate
T3 construct: made in house
T3 sequence (Q6FPH0 entry or part of it): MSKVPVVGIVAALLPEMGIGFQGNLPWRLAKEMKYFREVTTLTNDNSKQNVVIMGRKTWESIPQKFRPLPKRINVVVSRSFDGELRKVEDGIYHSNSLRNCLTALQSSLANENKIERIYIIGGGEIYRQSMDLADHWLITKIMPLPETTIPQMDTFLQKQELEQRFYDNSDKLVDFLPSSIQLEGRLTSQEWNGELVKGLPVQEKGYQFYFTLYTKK
Experimental: as §2, §1

[8] = 100 μM NADPH, 100 μM dihydrofolate, pH 7.0, 25° C., triplicate
[9] = MCF10, Human MCF-10 cells, read-out: IC50 Human MCF-10

Question: For `CCc1nc(N)nc(N)c1C#CC(C)c1ccc(-c2ccc(OC(N)=O)cc2)cc1OC` (centres unmarked) [Compound 33, Carbamic acid 4′-[3-(2,4-diamino-6-ethyl-pyrimidin-5-yl)-1-methyl-prop-2-ynyl]-3′-methoxy-biphenyl-4-yl ester], which IC50 [1, 8] is on record?
Answer: 170 nM

Question: And the IC50 [2, 8]?
Answer: 18 nM

Question: Which IC50 [1, 8] does the source give for `CCc1nc(N)nc(N)c1C#CC(C)c1ccc(-c2ccc(C(=O)OC)cc2)cc1OC` (centres unmarked) [Compound 34, 4′-[3-(2,4-Diamino-6-ethyl-pyrimidin-5-yl)-1-methyl-prop-2-ynyl]-3′-methoxy-biphenyl-4-carboxylic acid methyl ester] here?
Answer: 49 nM

Question: And the melting point?
Answer: 168.2 to 170.8 °C

Question: What about the IC50 [3, 9] of the same compound?
Answer: 96000 nM

Question: And the IC50 [2, 8]?
Answer: 46 nM

Question: What does the source list for `CCc1nc(N)nc(N)c1C#CC(C)c1ccc(-c2ccc(C)cc2)nc1` (centres unmarked) [Compound 47, 6-Ethyl-5-[3-(6-p-tolyl-pyridin-3-yl)-but-1-ynyl]-pyrimidine-2,4-diamine]?
Answer: MIC ([4]; Nakaseomyces glabratus): 0.2 to 0.78 µg/mL (≈ 0.56 to 2.18 µM); MIC C. glabrata [4]: 0.2 µg/mL (≈ 0.56 µM); IC50 [1, 8]: 625 nM; solubility [5]: 15 µg/mL (≈ 42 µM); MIC [6]: 0.2 to 0.78 µg/mL (≈ 0.56 to 2.18 µM); MIC C. albicans [6]: 0.39 µg/mL (≈ 1.09 µM); melting point: 144 to 146.1 °C; IC50 ([2]; pH 7): 49 nM; IC50 [7]: 27 nM

Question: With `CCc1nc(N)nc(N)c1C#CC(C)c1ccc(-c2ccc(N(C)C)cc2)cc1OC` (centres unmarked) [Compound 35, 5-[3-(4′-Dimethylamino-3-methoxy-biphenyl-4-yl)-but-1-ynyl]-6-ethyl-pyrimidine-2,4-diamine] as the compound, how does the IC50 ([1]; pH 7) read?
Answer: 147 nM

Question: And the melting point?
Answer: 135.2 to 136.1 °C

Question: What about the IC50 ([2]; pH 7) of the same compound?
Answer: 64 nM

Question: For `CCc1nc(N)nc(N)c1C#CC(C)c1ccc(-c2ccc(O)cc2)cc1OC` (centres unmarked) [Compound 30, 4′-[3-(2,4-Diamino-6-ethyl-pyrimidin-5-yl)-1-methyl-prop-2-ynyl]-3′-methoxy-biphenyl-4-ol], which IC50 [1, 8] is on record?
Answer: 136 nM

Question: What about the melting point of the same compound?
Answer: 188.1 to 189.3 °C

Question: What about the IC50 ([3]; Homo sapiens, MCF10, read-out: IC50 Human MCF-10) of the same compound?
Answer: 148000 nM

Question: What about the IC50 [2, 8] of the same compound?
Answer: 39 nM

Question: With `CCc1nc(N)nc(N)c1C#CC(C)c1cnc(-c2ccccc2)nc1` (centres unmarked) [Compound 48, 6-Ethyl-5-[3-(2-phenyl-pyrimidin-5-yl)-but-1-ynyl]-pyrimidine-2,4-diamine] as the compound, how does the “MIC C. glabrata” value [4] read?
Answer: 0.78 µg/mL (≈ 2.26 µM)

Question: What about the IC50 [1, 8] of the same compound?
Answer: 180 nM

Question: And the solubility [5]?
Answer: 60 µg/mL (≈ 174 µM)

Question: And the MIC [6]?
Answer: 0.2 to 0.78 µg/mL (≈ 0.581 to 2.26 µM)

Question: And the “MIC C. albicans” value [6]?
Answer: 0.19 µg/mL (≈ 0.552 µM)

Question: What about the melting point of the same compound?
Answer: 161.3 to 162.8 °C

Question: What about the IC50 [3, 9] of the same compound?
Answer: 216000 nM

Question: And the IC50 [2, 8]?
Answer: 37 nM

Question: What about the IC50 [7] of the same compound?
Answer: 22 nM

Question: Which IC50 [1, 8] does the source give for `CCc1nc(N)nc(N)c1C#CC(C)c1ccc(-c2ccc(C#N)cc2)cc1OC` (centres unmarked) [Compound 32, 4′-[3-(2,4-Diamino-6-ethyl-pyrimidin-5-yl)-1-methyl-prop-2-ynyl]-3′-methoxy-biphenyl-4-carbonitrile] here?
Answer: 477 nM

Question: And the melting point?
Answer: 130.9 to 133.1 °C

Question: And the IC50 [3, 9]?
Answer: 50000 nM

Question: And the IC50 [2, 8]?
Answer: 50 nM

Question: For `CCc1nc(N)nc(N)c1C#CC(C)c1ccc(-c2ccccc2)nc1` (centres unmarked) [Compound 46, 6-Ethyl-5-[3-(6-phenyl-pyridin-3-yl)-but-1-ynyl]-pyrimidine-2,4-diamine], which “MIC C. glabrata” value [4] is on record?
Answer: 0.78 µg/mL (≈ 2.27 µM)

Question: And the IC50 [1, 8]?
Answer: 688 nM

Question: What about the solubility [5] of the same compound?
Answer: 20 µg/mL (≈ 58.2 µM)

Question: And the MIC [6]?
Answer: 0.2 to 0.78 µg/mL (≈ 0.582 to 2.27 µM)

Question: What about the “MIC C. albicans” value [6] of the same compound?
Answer: 0.39 µg/mL (≈ 1.14 µM)

Question: And the IC50 [7]?
Answer: 23 nM
